Drawing on patent US8927587B2, “Chemical compounds” (Pfizer Limited, priority 2012, dated 2015), this text covers IC50 for twelve molecules.

SMILES strings stand for the structures.

The assay concerns the target T1, hNav1.8 (Homo sapiens, UniProt Q9Y5Y9).
T1 construct: host or cells: HEK cells, stably transfected
The assay is described as follows: hNav1.8 whole-cell patch-clamp electrophysiology (conventional or PatchXpress 7000) in stably transfected HEK cells. It counts as cell-based. The note with it: estimated IC50 calculated from single point % inhibition; HEK cells expressing hNav1.8; 8 sec prepulse to V1/2, 20 msec step to 0 mV; average of replicates; read-out: Nav1.8 EIC50. The essentials:
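Whole-cell voltage clamp at 22-24 °C in HEK cells stably expressing hNav1.8, manually or on PatchXpress. Current evoked by 20 msec step to 0 mV after 8 s prepulse to each cell's inactivation V1/2; single-concentration % inhibition converted to estimated IC50, using only 20-80% inhibition values, averaged over replicates.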

T1 sequence (Q9Y5Y9 whole entry): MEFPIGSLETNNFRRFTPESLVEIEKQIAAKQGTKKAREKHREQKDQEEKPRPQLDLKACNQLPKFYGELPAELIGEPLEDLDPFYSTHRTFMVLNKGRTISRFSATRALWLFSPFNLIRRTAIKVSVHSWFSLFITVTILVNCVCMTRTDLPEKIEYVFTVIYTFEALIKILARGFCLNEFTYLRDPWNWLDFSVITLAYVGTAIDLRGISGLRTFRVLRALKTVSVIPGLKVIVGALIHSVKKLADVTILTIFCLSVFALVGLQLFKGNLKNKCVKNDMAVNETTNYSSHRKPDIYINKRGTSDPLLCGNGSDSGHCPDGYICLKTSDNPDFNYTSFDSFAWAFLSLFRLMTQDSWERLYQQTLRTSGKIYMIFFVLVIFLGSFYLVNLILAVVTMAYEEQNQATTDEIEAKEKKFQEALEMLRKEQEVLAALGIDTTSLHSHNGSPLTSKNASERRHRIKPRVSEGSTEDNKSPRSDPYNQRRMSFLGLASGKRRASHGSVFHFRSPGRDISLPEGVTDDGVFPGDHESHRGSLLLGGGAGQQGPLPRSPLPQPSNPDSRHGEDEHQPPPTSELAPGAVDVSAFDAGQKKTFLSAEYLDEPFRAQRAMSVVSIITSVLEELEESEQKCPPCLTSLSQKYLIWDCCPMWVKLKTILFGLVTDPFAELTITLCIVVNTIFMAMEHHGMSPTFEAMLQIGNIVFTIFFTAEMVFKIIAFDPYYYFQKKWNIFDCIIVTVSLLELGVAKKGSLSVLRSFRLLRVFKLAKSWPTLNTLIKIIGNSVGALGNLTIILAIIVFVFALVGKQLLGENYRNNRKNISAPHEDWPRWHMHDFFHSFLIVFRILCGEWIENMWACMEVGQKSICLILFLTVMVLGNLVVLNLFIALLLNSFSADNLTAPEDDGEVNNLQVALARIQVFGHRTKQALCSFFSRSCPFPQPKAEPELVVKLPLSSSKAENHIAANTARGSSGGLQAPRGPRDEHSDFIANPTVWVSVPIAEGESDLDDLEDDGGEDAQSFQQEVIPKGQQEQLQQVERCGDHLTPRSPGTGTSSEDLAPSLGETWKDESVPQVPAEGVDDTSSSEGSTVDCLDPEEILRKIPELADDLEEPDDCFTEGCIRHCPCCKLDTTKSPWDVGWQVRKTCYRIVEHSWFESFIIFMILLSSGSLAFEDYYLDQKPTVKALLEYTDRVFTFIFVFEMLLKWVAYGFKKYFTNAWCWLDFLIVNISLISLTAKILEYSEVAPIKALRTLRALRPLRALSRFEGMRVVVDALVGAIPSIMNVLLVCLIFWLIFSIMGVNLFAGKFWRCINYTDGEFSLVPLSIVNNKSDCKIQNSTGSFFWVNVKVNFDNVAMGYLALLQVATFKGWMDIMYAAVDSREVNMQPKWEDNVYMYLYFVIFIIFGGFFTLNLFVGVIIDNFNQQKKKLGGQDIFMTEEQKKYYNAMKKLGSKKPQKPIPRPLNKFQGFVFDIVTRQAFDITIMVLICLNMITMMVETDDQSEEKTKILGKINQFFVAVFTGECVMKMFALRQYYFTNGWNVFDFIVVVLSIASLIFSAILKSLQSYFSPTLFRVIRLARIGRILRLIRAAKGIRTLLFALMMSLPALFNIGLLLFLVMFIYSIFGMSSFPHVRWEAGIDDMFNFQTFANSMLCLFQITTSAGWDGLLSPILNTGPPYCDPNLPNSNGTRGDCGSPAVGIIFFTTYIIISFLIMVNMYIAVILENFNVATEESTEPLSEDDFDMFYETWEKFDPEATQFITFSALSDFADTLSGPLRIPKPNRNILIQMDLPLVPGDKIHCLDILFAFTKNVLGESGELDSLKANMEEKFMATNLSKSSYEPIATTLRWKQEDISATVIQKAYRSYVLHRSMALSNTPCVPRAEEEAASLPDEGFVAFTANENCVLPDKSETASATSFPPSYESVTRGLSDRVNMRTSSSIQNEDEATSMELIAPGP

As for `CCC[C@H](N)c1nc2cc(-c3ccc(C#N)c(F)c3)ccc2[nH]1` [Example 146, 4-{2-[(1S)-1-Aminobutyl]-1H-benzimidazol-5-yl}-2-fluorobenzonitrile], the IC50 was 27.3 nM. The same measure for `CCC[C@H](N)c1nc2cc(-c3ccc(C#N)cc3)ccc2[nH]1` [Example 147, 4-{2-[(1S)-1-Aminobutyl]-1H-benzimidazol-5-yl}benzonitrile]: 110 nM. Turning to `CC(C)c1ccc2[nH]c([C@H](N)[C@@H](C)O)nc2c1` [Example 148, (1S,2R)-1-Amino-1-[5-(propan-2-yl)-1H-benzimidazol-2-yl]propan-2-ol], the IC50 was 1000 nM. On to `C[C@@H](C(=O)N(C)C)[C@H](N)c1nc2cc(C(C)(C)C)ccc2[nH]1` [Example 149, (2R,3S)-3-Amino-3-(5-tert-butyl-1H-benzimidazol-2-yl)-N,N,2-trimethylpropanamide], for which the IC50 is 303 nM. In the case of `CC(N)(CO)c1nc2cc(-c3ccc(C#N)c(F)c3)ccc2[nH]1` (stereo not drawn) [Example 150, 4-(2-(2-Amino-1-hydroxypropan-2-yl)-1H-benzo[d]imidazol-5-yl)-2-fluorobenzonitrile], the IC50 is 134 nM.

With `C[C@H](OC(N)=O)[C@H](N)c1nc2cc(C34CC5CC(CC(C5)C3)C4)ccc2[nH]1` [Example 151, (1R,2S)-1-(5-((3R,5R,7R)-Adamantan-1-yl)-1H-benzo[d]imidazol-2-yl)-1-aminopropan-2-yl carbamate], the IC50 is 45.2 nM. Take `NC(=O)C[C@H](N)c1nc2cc(C34CC5CC(CC(C5)C3)C4)ccc2[nH]1` [Example 152, (3S)-3-Amino-3-[5-(tricyclo[3.3.1.1^3,7]dec-1-yl)-1H-benzimidazol-2-yl]propanamide]: the IC50 was 101 nM.

On to `COC[C@H](N)c1nc2cc(-c3ccc(C#N)cc3)ccc2[nH]1` [Example 153, 4-{2-[(1R)-1-Amino-2-methoxyethyl]-1H-benzimidazol-5-yl}benzonitrile], for which the IC50 was 96.3 nM. For the molecule `C[C@@H](O)[C@H](N)c1cn2cc(-c3ccc(C#N)cc3)ccc2n1` [Example 154, 4-{2-[(1R,2R)-1-Amino-2-hydroxypropyl]imidazo[1,2-a]pyridin-6-yl}benzonitrile], the IC50 is 108 nM. The same measure for `CC(C)(C)c1ccc2nc([C@@H](N)CO)cn2c1` [Example 155, (2R)-2-Amino-2-(6-tert-butylimidazo[1,2-a]pyridin-2-yl)ethanol]: 208 nM; for `C[C@@H](C(N)=O)[C@H](N)c1cn2cc(-c3ccc(C#N)cc3)ccc2n1` [Example 156, (2R,3S)-3-Amino-3-[6-(4-cyanophenyl)imidazo[1,2-a]pyridin-2-yl]-2-methylpropanamide]: 54.6 nM. As for `C[C@@H](C(N)=O)[C@H](N)c1cn2cc(C(C)(C)C)ccc2n1` [Example 157, (2R,3S)-3-Amino-3-(6-tert-butylimidazo[1,2-a]pyridin-2-yl)-2-methylpropanamide], the IC50 is 44.5 nM.
